≈ marks a conversion by molar mass, not a printed value.
Experiments:
Format in all cases: cell-based
S. aureus ATCC 13709 = test: MIC, S. aureus ATCC 13709 (Alamar Blue broth microdilution); conditions: for MIC: Staphylococcus aureus
S. pneumoniae ATCC 51916 = test: MIC, S. pneumoniae ATCC 51916
[1] = tested on: F. tularensis holarctica LVS; test: microbe, parasite or virus in culture; conditions: for MIC Ft: Ft = F. tularensis, strain not given
A. baumannii ATCC 19606 = test: MIC, A. baumannii ATCC 19606; conditions: strain not given
[2] = tested on: K. pneumoniae ATCC 700603; test: MIC, K. pneumoniae ATCC 700603; conditions: for MIC Kpn: Kpn = K. pneumoniae
[3] = tested on: B. thailandensis ATCC E264; test: microbe, parasite or virus in culture
Y. pestis CO92 pgm- = test: microbe, parasite or virus in culture; conditions: for MIC Yp: Yp = Y. pestis
E. coli ATCC 25922 = test: MIC, E. coli ATCC 25922; conditions: for MIC: Escherichia coli
P. aeruginosa ATCC 15692 = test: MIC, P. aeruginosa ATCC 15692
[4] = S. aureus, Alamar Blue read after overnight incubation at 35° C.
[5] = E. coli, Alamar Blue read after overnight incubation at 35° C.

Compound | MIC Sa (S. aureus ATCC 13709; [4]) | MIC Sa (S. aureus ATCC 13709; Sa = S. aureus) | MIC Spn (S. pneumoniae ATCC 51916) | MIC Ft [1] | MIC Ab (A. baumannii ATCC 19606) | MIC Kpn [2] | MIC Bt [3] | MIC Yp (Y. pestis CO92 pgm-) | MIC Ec (E. coli ATCC 25922; [5]) | MIC Ec (E. coli ATCC 25922; Ec = E. coli, strain not given) | MIC Pa (P. aeruginosa ATCC 15692) | also measured
CNc1cc(F)cc2c1[nH]c1nc(Oc3ccc4cncnc4c3)nc(N3CC4CC(N)C4C3)c12 (stereo not drawn) [4.365] | ≤0.5 µg/mL | ≤0.5 µg/mL | ≤0.5 µg/mL | 1 µg/mL (≈ 2.13 µM) | ≤0.5 µg/mL | 4 µg/mL (≈ 8.5 µM) | ≤0.5 µg/mL | ≤0.5 µg/mL | ≤0.5 µg/mL | ≤0.5 µg/mL | 1 µg/mL (≈ 2.13 µM) | 
CNc1cc(F)cc2c1[nH]c1nc(Oc3cnc(C)nc3)nc(N3CC4CCC(N)C4C3)c12 (stereo not drawn) [4.076] | ≤0.5 µg/mL | ≤0.5 µg/mL | ≤0.5 µg/mL | 2 µg/mL (≈ 4.46 µM) | ≤0.5 µg/mL | 4 µg/mL (≈ 8.92 µM) | 1 µg/mL (≈ 2.23 µM) | ≤0.5 µg/mL | ≤0.5 µg/mL | ≤0.5 µg/mL | 4 µg/mL (≈ 8.92 µM) | 
CNc1cc(F)cc2c1[nH]c1nc(Oc3cnc(C)nc3)nc(N3C[C@H]4CCN[C@H]4C3)c12 [4.103] | ≤0.5 µg/mL | ≤0.5 µg/mL | ≤0.5 µg/mL | 1 µg/mL (≈ 2.3 µM) | ≤0.5 µg/mL | 2 µg/mL (≈ 4.6 µM) | ≤0.5 µg/mL | ≤0.5 µg/mL | ≤0.5 µg/mL | ≤0.5 µg/mL | 2 µg/mL (≈ 4.6 µM) | 
CNc1cc(F)cc2c1[nH]c1nc(Oc3cnc(C)nc3)nc(N3CC4C(N)C4C3)c12 (stereo not drawn) [4.073] | ≤0.5 µg/mL | ≤0.5 µg/mL | ≤0.5 µg/mL | 1 µg/mL (≈ 2.38 µM) | ≤0.5 µg/mL | 2 µg/mL (≈ 4.76 µM) | ≤0.5 µg/mL | ≤0.5 µg/mL | ≤0.5 µg/mL | ≤0.5 µg/mL | 4 µg/mL (≈ 9.51 µM) | 
CNc1cc(F)cc2c1[nH]c1nc(Oc3cnc(C)nc3)nc(N3CC4(CCC4N)C3)c12 (stereo not drawn) [4.105] |  | ≤0.5 µg/mL | ≤0.5 µg/mL | 1 µg/mL (≈ 2.3 µM) | ≤0.5 µg/mL | 2 µg/mL (≈ 4.6 µM) | ≤0.5 µg/mL | ≤0.5 µg/mL |  | ≤0.5 µg/mL | 1 µg/mL (≈ 2.3 µM) | 
CNc1cc(F)cc2c1[nH]c1nc(Oc3cnc4cccnc4c3)nc(N3CC4C(N)C4C3)c12 (stereo not drawn) [4.035] |  |  |  |  |  |  |  |  |  |  |  | MIC (S. aureus ATCC 13709; ATCC13709, S. aureus, Alamar Blue read after overnight incubation at 35° C.): ≤ 0.5 µg/mL; MIC (S. aureus ATCC 13709; ATCC13709, Sa = S. aureus): ≤ 0.5 µg/mL; MIC (S. pneumoniae ATCC 51916; Streptococcus pneumoniae, ATCC51916, Spn = S. pneumoniae): ≤ 0.5 µg/mL; MIC ([1]; Francisella tularensis, read-out: MIC Ft): 1 µg/mL (≈ 2.19 µM); MIC (A. baumannii ATCC 19606; Acinetobacter baumannii, ATCC19606, Ab = A. baumannii): ≤ 0.5 µg/mL; MIC ([2]; Klebsiella pneumoniae, ATCC700603, read-out: MIC Kpn): 2 µg/mL (≈ 4.38 µM); MIC ([3]; Burkholderia thailandensis, ATCCE264, read-out: MIC Bt): ≤ 0.5 µg/mL; MIC (Y. pestis CO92 pgm-; Yersinia pestis, CO92PGM, read-out: MIC Yp): ≤ 0.5 µg/mL; MIC (E. coli ATCC 25922; ATCC25922, E. coli, Alamar Blue read after overnight incubation at 35° C.): ≤ 0.5 µg/mL; MIC (E. coli ATCC 25922; ATCC25922, Ec = E. coli, strain not given): ≤ 0.5 µg/mL; MIC (P. aeruginosa ATCC 15692; Pseudomonas aeruginosa, ATCC15692, Pa = P. aeruginosa): 4 µg/mL (≈ 8.76 µM)
CNc1cc(F)cc2c1[nH]c1nc(Oc3cnc(C)nc3)nc(N3CC(N)C4(CC4)C3)c12 (stereo not drawn) [4.069] |  | ≤0.5 µg/mL | ≤0.5 µg/mL | 2 µg/mL (≈ 4.6 µM) | ≤0.5 µg/mL | 2 µg/mL (≈ 4.6 µM) | ≤0.5 µg/mL | ≤0.5 µg/mL |  | ≤0.5 µg/mL | 4 µg/mL (≈ 9.21 µM) | 
CNc1cc(F)cc2c1[nH]c1nc(Oc3cnc(C)nc3)nc(N3CC4CCCNC4C3)c12 (stereo not drawn) [4.079] | ≤0.5 µg/mL | ≤0.5 µg/mL | ≤0.5 µg/mL | 4 µg/mL (≈ 8.92 µM) | ≤0.5 µg/mL | 8 µg/mL (≈ 17.8 µM) | 1 µg/mL (≈ 2.23 µM) | ≤0.5 µg/mL | ≤0.5 µg/mL | ≤0.5 µg/mL | 4 µg/mL (≈ 8.92 µM) | 
CNc1cc(F)cc2c1[nH]c1nc(Oc3cnc(C)nc3)nc(N3CC4CC3C[C@@H]4N)c12 (stereo partly drawn) [4.131] | ≤0.5 µg/mL | ≤0.5 µg/mL | ≤0.5 µg/mL | ≤0.5 µg/mL | ≤0.5 µg/mL | 2 µg/mL (≈ 4.6 µM) | ≤0.5 µg/mL | ≤0.5 µg/mL | ≤0.5 µg/mL | ≤0.5 µg/mL | 1 µg/mL (≈ 2.3 µM) | 
CNc1cc(F)cc2c1[nH]c1nc(Oc3cnc4cccnc4c3)nc(N3CC4(CCC4N)C3)c12 (stereo not drawn) [4.045] | ≤0.5 µg/mL | ≤0.5 µg/mL | ≤0.5 µg/mL | 2 µg/mL (≈ 4.25 µM) | ≤0.5 µg/mL | 8 µg/mL (≈ 17 µM) | 1 µg/mL (≈ 2.13 µM) | ≤0.5 µg/mL | ≤0.5 µg/mL | ≤0.5 µg/mL | 4 µg/mL (≈ 8.5 µM) | 
CNc1cc(F)cc2c1[nH]c1nc(Oc3cnc(C)nc3)nc(N3CC4CC(N)C4C3)c12 (stereo not drawn) [4.084] | ≤0.5 µg/mL | ≤0.5 µg/mL | ≤0.5 µg/mL | ≤0.5 µg/mL | ≤0.5 µg/mL | 4 µg/mL (≈ 9.21 µM) | ≤0.5 µg/mL | ≤0.5 µg/mL | ≤0.5 µg/mL | ≤0.5 µg/mL | 1 µg/mL (≈ 2.3 µM) | 
